We go through five compounds from PubChem BioAssay AID1918993 (Molecular Pharmacology Branch, DTP, NCI, 2023).

This assay concerns 233499-124-R-J3-PDC complex spheroid growth. The assay can be described thus: Anticancer human tumor 233499-124-R-J3-PDC patient-derived colon adenocarcinoma cell line growth inhibition [AhR]. The settings on record: for viability, T/C: stronger effect = lower value. The method in brief:
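Complex tumor spheroids co-cultured with HUVEC and human MSC stroma; AhR antagonists tested in combination with standard-of-care and investigational agents. Top concentration at or near clinical Cmax (else 10 microM), half-log dilutions; growth expressed as percent test/control.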

Setting [1] is: curve of first compound, second compound 0.1 µM.
Setting [2] is: curve of first compound, second compound 0.316 µM.
Where [3] appears, read: curve of first compound, second compound 1 µM.
Where [4] appears, read: curve of first compound, second compound 3.16 µM.
Setting [5] is: curve of first compound, second compound 10 µM.
Setting [6] is: second compound 0.1 µM, first compound 0.0316 µM.
Setting [7] is: second compound 0.1 µM, first compound 0.1 µM.
Where [8] appears, read: second compound 0.316 µM, first compound 0.0316 µM.
Where [9] appears, read: second compound 0.316 µM, first compound 0.1 µM.
The mark [10] stands for this setting: second compound 1 µM, first compound 0.0316 µM.
The mark [11] stands for this setting: second compound 1 µM, first compound 0.1 µM.
Where [12] appears, read: second compound 3.16 µM, first compound 0.0316 µM.
The mark [13] stands for this setting: second compound 3.16 µM, first compound 0.1 µM.
The mark [14] stands for this setting: second compound 10 µM, first compound 0.0316 µM.
Where [15] appears, read: second compound 10 µM, first compound 0.1 µM.

Values joined by “and” are separate entries in the source; they are usually repeats but may differ in a detail not shown here. Equal entries are not always repeated.
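Also: spheroids exposed to agents for seven days before reading.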

For `COc1ccc([C@@H](O)c2cc(-c3ncnc4cc(N5CCOCC5)ccc34)c(F)cc2Cl)nn1` + Cc1cncc(-c2nc(NCCc3c[nH]c4ccccc34)c3ncn(C(C)C)c3n2)c1, the IC50 runs as follows: under setting [1], greater than 10 µM; under setting [2], greater than 10 µM; under setting [3], greater than 10 µM; under setting [4], greater than 10 µM; under setting [5], less than 0.0316 µM. Moreover, the viability, T/C runs as follows: under setting [6], 87.6%; under setting [7], 82.5%; (second compound 0.1 µM, first compound 0.316 µM) 84.5%; (second compound 0.1 µM, first compound 1 µM) 90.5%; (second compound 0.1 µM, first compound 3.16 µM) 70.3%; (second compound 0.1 µM, first compound 10 µM) 64.1%. For the same compound, the viability, T/C is 95.3% under setting [8]; 77.3% under setting [9]; 79.8% (second compound 0.316 µM, first compound 0.316 µM); 64.5% (second compound 0.316 µM, first compound 1 µM); 70.4% (second compound 0.316 µM, first compound 3.16 µM); 67.7% (second compound 0.316 µM, first compound 10 µM). Besides, the viability, T/C was 75.7% under setting [10]; 73.3% under setting [11]; 65.7% (second compound 1 µM, first compound 0.316 µM); 66.4% (second compound 1 µM, first compound 1 µM); 60.8% (second compound 1 µM, first compound 3.16 µM); 67.5% (second compound 1 µM, first compound 10 µM). In addition, the viability, T/C is, setting by setting: under setting [12], 74.2%; under setting [13], 72.7%; (second compound 3.16 µM, first compound 0.316 µM) 68.1%; (second compound 3.16 µM, first compound 1 µM) 69%; (second compound 3.16 µM, first compound 3.16 µM) 61.4%; (second compound 3.16 µM, first compound 10 µM) 71.7%. Further, the viability, T/C was 1.87% under setting [14]; 1.89% under setting [15]; 4.9% (second compound 10 µM, first compound 0.316 µM); 2.28% (second compound 10 µM, first compound 1 µM); 1.45% (second compound 10 µM, first compound 3.16 µM); 4.49% (second compound 10 µM, first compound 10 µM).

On to `CC[C@@]1(O)C(=O)OCc2c1cc1n(c2=O)Cc2cc3c(CN(C)C)c(O)ccc3nc2-1` + Cc1cncc(-c2nc(NCCc3c[nH]c4ccccc34)c3ncn(C(C)C)c3n2)c1, for which the half-maximal inhibitory concentration (IC50) was greater than 0.1 µM under setting [1]; greater than 0.1 µM under setting [2]; greater than 0.1 µM under setting [3]; greater than 0.1 µM under setting [4]; less than 0.000316 µM under setting [5]. For the same compound, the viability, T/C runs as follows: (second compound 0.1 µM, first compound 0.000316 µM) 101%; (second compound 0.1 µM, first compound 0.001 µM) 94.2%; (second compound 0.1 µM, first compound 0.00316 µM) 92.1%; (second compound 0.1 µM, first compound 0.01 µM) 94.6%; under setting [6], 97.6%; under setting [7], 92.6%. Also, the viability, T/C was 92.1% (second compound 0.316 µM, first compound 0.000316 µM); 82.3% (second compound 0.316 µM, first compound 0.001 µM); 84.4% (second compound 0.316 µM, first compound 0.00316 µM); 78.5% (second compound 0.316 µM, first compound 0.01 µM); 101% under setting [8]; 69.6% under setting [9]. For the same compound, the viability, T/C was 84.1% (second compound 1 µM, first compound 0.000316 µM); 76% (second compound 1 µM, first compound 0.001 µM); 77.8% (second compound 1 µM, first compound 0.00316 µM); 70.3% (second compound 1 µM, first compound 0.01 µM); 85.2% under setting [10]; 68% under setting [11]. In addition, the viability, T/C by setting is: (second compound 3.16 µM, first compound 0.000316 µM) 87.8%; (second compound 3.16 µM, first compound 0.001 µM) 71.5%; (second compound 3.16 µM, first compound 0.00316 µM) 91%; (second compound 3.16 µM, first compound 0.01 µM) 88.6%; under setting [12], 83.3%; under setting [13], 63.2%. Also, the viability, T/C was 8.54% (second compound 10 µM, first compound 0.000316 µM); 8.37% (second compound 10 µM, first compound 0.001 µM); 34.9% (second compound 10 µM, first compound 0.00316 µM); 24% (second compound 10 µM, first compound 0.01 µM); 12.9% under setting [14]; 16.9% under setting [15].

`NS(=O)(=O)OCC1CC(n2ccc3c(NC4CCc5ccccc54)ncnc32)CC1O` (centres undefined): the viability, T/C is 101% (2×) and 105% (compound 0.0316 µM); 107% and 91.4% and 77.7% (compound 0.1 µM); 98.2% and 66% and 47.5% (compound 0.316 µM); 18.1% and 25.5% and 14% (compound 1 µM); 5.89% and 5.66% and 5.16% (compound 3.16 µM); 3% and 4.4% and 2.68% (compound 10 µM). For the same compound, the half-inhibitory concentration (IC50) (curve of compound) is 0.632 µM and 0.486 µM and 0.266 µM.

Turning to `CCN(c1cc(-c2ccc(CN3CCOCC3)cc2)cc(C(=O)NCc2c(C)cc(C)[nH]c2=O)c1C)C1CCOCC1` + Cc1ccccc1N=Nc1ccc(NC(=O)c2ccnn2C)c(C)c1, the IC50 was greater than 3 µM under setting [1]; greater than 3 µM under setting [2]; greater than 3 µM under setting [3]; greater than 3 µM under setting [4]; greater than 3 µM under setting [5]. For the same compound, the viability, T/C was 99.3% (second compound 0.1 µM, first compound 0.00949 µM); 98% (second compound 0.1 µM, first compound 0.03 µM); 95.1% (second compound 0.1 µM, first compound 0.0949 µM); 97.1% (second compound 0.1 µM, first compound 0.3 µM); 97.2% (second compound 0.1 µM, first compound 0.949 µM); 102% (second compound 0.1 µM, first compound 3 µM). The viability, T/C by setting is: (second compound 0.316 µM, first compound 0.00949 µM) 88%; (second compound 0.316 µM, first compound 0.03 µM) 95.8%; (second compound 0.316 µM, first compound 0.0949 µM) 100%; (second compound 0.316 µM, first compound 0.3 µM) 95.3%; (second compound 0.316 µM, first compound 0.949 µM) 98.3%; (second compound 0.316 µM, first compound 3 µM) 96.6%. In addition, the viability, T/C runs as follows: (second compound 1 µM, first compound 0.00949 µM) 107%; (second compound 1 µM, first compound 0.03 µM) 97.6%; (second compound 1 µM, first compound 0.0949 µM) 104%; (second compound 1 µM, first compound 0.3 µM) 93.1%; (second compound 1 µM, first compound 0.949 µM) 92.3%; (second compound 1 µM, first compound 3 µM) 100%. The viability, T/C by setting is: (second compound 3.16 µM, first compound 0.00949 µM) 95.1%; (second compound 3.16 µM, first compound 0.03 µM) 93.9%; (second compound 3.16 µM, first compound 0.0949 µM) 105%; (second compound 3.16 µM, first compound 0.3 µM) 91.7%; (second compound 3.16 µM, first compound 0.949 µM) 92.6%; (second compound 3.16 µM, first compound 3 µM) 93.7%. The viability, T/C by setting is: (second compound 10 µM, first compound 0.00949 µM) 101%; (second compound 10 µM, first compound 0.03 µM) 96.1%; (second compound 10 µM, first compound 0.0949 µM) 91.8%; (second compound 10 µM, first compound 0.3 µM) 92.7%; (second compound 10 µM, first compound 0.949 µM) 93.9%; (second compound 10 µM, first compound 3 µM) 99.5%.

`CC1(C)CCC(CN2CCN(c3ccc(C(=O)NS(=O)(=O)c4ccc(NCC5CCOCC5)c([N+](=O)[O-])c4)c(Oc4cnc5[nH]ccc5c4)c3)CC2)=C(c2ccc(Cl)cc2)C1`: the viability, T/C was 87.2% and 90.9% and 106% (compound 0.0316 µM); 102% and 112% and 109% (compound 0.1 µM); 92.4% and 105% and 97.8% (compound 0.316 µM); 105% and 101% and 104% (compound 1 µM); 112% and 114% and 98.7% (compound 3.16 µM); 109% and 42.8% and 31.2% (compound 10 µM). The half-inhibitory concentration (IC50) (curve of compound) was > 10 µM and 8.74 µM and 7.26 µM.
